Oligonucleotides are written 5' to 3', each unit as a sugar letter and its base; * is a phosphorothioate linkage, no mark a phosphodiester; rarer units and linkages stand in square brackets, end groups in braces. Plain capitals give the bases only. e = 2'-O-(2-methoxyethyl) (MOE); [5mC] = 5-methylcytosine; d = 2'-deoxy (DNA)
The sequences below were run on murine TTC39B mRNA (assay: Antisense inhibition of murine TTC39B in mouse primary hepatocytes, single dose). Conditions: 100 nM, cytofectin, ~24 h, vs untreated control; gapmers targeted to SEQ ID NO: 6.
Format: cell-based
Procedure: Antisense oligonucleotides targeted to a TTC39B nucleic acid were tested for their effects on TTC39B mRNA in vitro. Cultured mouse primary hepatocytes at a density of 10,000 cells per well were transfected using cytofectin reagent with 100 nM antisense oligonucleotide. After a treatment period of approximately 24 hours, RNA was isolated from the cells and TTC39B mRNA levels were measured by quantitative real-time PCR. TTC39B mRNA levels were adjusted according to total RNA content, as measured by RIBOGREEN®. Results are presented as percent inhibition of TTC39B, relative to untreated control cells.
The chimeric antisense oligonucleotides in Tables 1 and 2 were designed as 5-10-5 MOE gapmers. The gapmers are 20 nucleotides in length, wherein the central gap segment is comprised of 10 2′-deoxynucleotides and is flanked on both sides (in the 5′ and 3′ directions) by wings comprising 5 nucleotides each. Each nucleotide in the 5′ wing segment and each nucleotide in the 3′ wing segment has a 2′-MOE modification. The internucleoside linkages throughout each gapmer are phosphorothioate (P═S) linkages. All cytosine residues throughout each gapmer are 5-methylcytosines. “Target start site” indicates the 5′-most nucleotide to which the gapmer is targeted. “Target stop site” indicates the 3′-most nucleotide to which the gapmer is targeted. Each gapmer listed in Table 1 is targeted to SEQ ID NO: 6 (GENBANK Accession No. NM_027238.2) and each gapmer listed in Table 2 is targeted to SEQ ID NO: 10 (the complement of GENBANK Accession No. NT—039260.7 truncated at nucleotides 22491001 to 22601000), SEQ ID NO: 11 (GENBANK Accession No. BY244623.1), SEQ ID NO: 12 (GENBANK Accession No. BY260936), SEQ ID NO: 13 (GENBANK Accession No. BM935568.1) or SEQ ID NO: 14 (GENBANK Accession No. BY728780.1).

For “GCGCCTTCCCGGAGCTGCAG (antisense eG*e[5mC]*eG*e[5mC]*e[5mC]*dT*dT*d[5mC]*d[5mC]*d[5mC]*dG*dG*dA*dG*d[5mC]*eT*eG*e[5mC]*eA*eG) [ISIS 447116]”, which “% inhibition of murine TTC39B mRNA” value is on record?
Its value is 56%.

For “GGCAGAGTATAAGAATTTCT (antisense eG*eG*e[5mC]*eA*eG*dA*dG*dT*dA*dT*dA*dA*dG*dA*dA*eT*eT*eT*e[5mC]*eT) [ISIS 447133]”, which “% inhibition of murine TTC39B mRNA” value is on record?
The value was 56%.

Which “% inhibition of murine TTC39B mRNA” value does the source give for “GGCTCTGGGTTCAGCCCAGC (antisense eG*eG*e[5mC]*eT*e[5mC]*dT*dG*dG*dG*dT*dT*d[5mC]*dA*dG*d[5mC]*e[5mC]*e[5mC]*eA*eG*e[5mC]) [ISIS 447098]” here?
Its value is 44%.

For “GTCCGATGGAGATCTAGAGA (antisense eG*eT*e[5mC]*e[5mC]*eG*dA*dT*dG*dG*dA*dG*dA*dT*d[5mC]*dT*eA*eG*eA*eG*eA) [ISIS 447102]”, which “% inhibition of murine TTC39B mRNA” value is on record?
Its value is 84%.

Which “% inhibition of murine TTC39B mRNA” value does the source give for “GTTCCGGATCAGTCCGTGGA (antisense eG*eT*eT*e[5mC]*e[5mC]*dG*dG*dA*dT*d[5mC]*dA*dG*dT*d[5mC]*d[5mC]*eG*eT*eG*eG*eA) [ISIS 447132]” here?
Its value is 58%.

With “GTTTTTCACTTTCCACAACG (antisense eG*eT*eT*eT*eT*dT*d[5mC]*dA*d[5mC]*dT*dT*dT*d[5mC]*d[5mC]*dA*e[5mC]*eA*eA*e[5mC]*eG) [ISIS 447128]” as the sequence, how does the “% inhibition of murine TTC39B mRNA” value read?
The value was 56%.

“TACAGACCATGAGCTTTGAT (antisense eT*eA*e[5mC]*eA*eG*dA*d[5mC]*d[5mC]*dA*dT*dG*dA*dG*d[5mC]*dT*eT*eT*eG*eA*eT) [ISIS 447145]” was tested. Which “% inhibition of murine TTC39B mRNA” value did it give?
The value was 61%.

For “TAGTAATACGCCTGCATCCA (antisense eT*eA*eG*eT*eA*dA*dT*dA*d[5mC]*dG*d[5mC]*d[5mC]*dT*dG*d[5mC]*eA*eT*e[5mC]*e[5mC]*eA) [ISIS 447121]”, which “% inhibition of murine TTC39B mRNA” value is on record?
Its value is 53%.

How did the “% inhibition of murine TTC39B mRNA” value turn out when “TCATATTTTCATCCTGCACA (antisense eT*e[5mC]*eA*eT*eA*dT*dT*dT*dT*d[5mC]*dA*dT*d[5mC]*d[5mC]*dT*eG*e[5mC]*eA*e[5mC]*eA) [ISIS 447109]” was run?
The value was 41%.

With “TCCAAGGCATCTTCAAAGAT (antisense eT*e[5mC]*e[5mC]*eA*eA*dG*dG*d[5mC]*dA*dT*d[5mC]*dT*dT*d[5mC]*dA*eA*eA*eG*eA*eT) [ISIS 447101]” as the sequence, how does the “% inhibition of murine TTC39B mRNA” value read?
The value was 36%.

How did the “% inhibition of murine TTC39B mRNA” value turn out when “TCCACCTTGGCTGATGAACC (antisense eT*e[5mC]*e[5mC]*eA*e[5mC]*d[5mC]*dT*dT*dG*dG*d[5mC]*dT*dG*dA*dT*eG*eA*eA*e[5mC]*e[5mC]) [ISIS 447104]” was run?
Its value is 48%.

Which “% inhibition of murine TTC39B mRNA” value does the source give for “TCCACTCGGCTGCCCACGAG (antisense eT*e[5mC]*e[5mC]*eA*e[5mC]*dT*d[5mC]*dG*dG*d[5mC]*dT*dG*d[5mC]*d[5mC]*d[5mC]*eA*e[5mC]*eG*eA*eG) [ISIS 447100]” here?
The value was 62%.

“TCCAGAGATGAAGAGCTGCT (antisense eT*e[5mC]*e[5mC]*eA*eG*dA*dG*dA*dT*dG*dA*dA*dG*dA*dG*e[5mC]*eT*eG*e[5mC]*eT) [ISIS 447131]” was tested. Which “% inhibition of murine TTC39B mRNA” value did it give?
The value was 60%.

Which “% inhibition of murine TTC39B mRNA” value does the source give for “TCTGGAAGCATGCTCAAAAT (antisense eT*e[5mC]*eT*eG*eG*dA*dA*dG*d[5mC]*dA*dT*dG*d[5mC]*dT*d[5mC]*eA*eA*eA*eA*eT) [ISIS 447124]” here?
The value was 60%.

How did the “% inhibition of murine TTC39B mRNA” value turn out when “TCTTCACTCAGTTGTTCCAG (antisense eT*e[5mC]*eT*eT*e[5mC]*dA*d[5mC]*dT*d[5mC]*dA*dG*dT*dT*dG*dT*eT*e[5mC]*e[5mC]*eA*eG) [ISIS 447108]” was run?
Its value is 49%.

Which “% inhibition of murine TTC39B mRNA” value does the source give for “TGTTTCCAGAAAATCCAATA (antisense eT*eG*eT*eT*eT*d[5mC]*d[5mC]*dA*dG*dA*dA*dA*dA*dT*d[5mC]*e[5mC]*eA*eA*eT*eA) [ISIS 447115]” here?
Its value is 56%.

With “TTATACAAAAATGCCAACTC (antisense eT*eT*eA*eT*eA*d[5mC]*dA*dA*dA*dA*dA*dT*dG*d[5mC]*d[5mC]*eA*eA*e[5mC]*eT*e[5mC]) [ISIS 447129]” as the sequence, how does the “% inhibition of murine TTC39B mRNA” value read?
The value was 34%.

With “TTCTTACAAACATCCTAAGA (antisense eT*eT*e[5mC]*eT*eT*dA*d[5mC]*dA*dA*dA*d[5mC]*dA*dT*d[5mC]*d[5mC]*eT*eA*eA*eG*eA) [ISIS 447148]” as the sequence, how does the “% inhibition of murine TTC39B mRNA” value read?
Its value is 54%.

For “TTTGGCAGGTTTGTAAAGCG (antisense eT*eT*eT*eG*eG*d[5mC]*dA*dG*dG*dT*dT*dT*dG*dT*dA*eA*eA*eG*e[5mC]*eG) [ISIS 447107]”, which “% inhibition of murine TTC39B mRNA” value is on record?
The value was 61%.

Same assay, conditions: 100 nM, cytofectin, ~24 h, vs untreated control; gapmers targeted to SEQ ID NO: 10-14

With “GCTTACCTTGGACCATTTAC (eG*e[5mC]*eT*eT*eA*d[5mC]*d[5mC]*dT*dT*dG*dG*dA*d[5mC]*d[5mC]*dA*eT*eT*eT*eA*e[5mC]; antisense) [ISIS 447173]” as the sequence, how does the “% inhibition of murine TTC39B mRNA” value read?
The value was 59%.

“GGAGATGTGTGTACGGCAGC (antisense eG*eG*eA*eG*eA*dT*dG*dT*dG*dT*dG*dT*dA*d[5mC]*dG*eG*e[5mC]*eA*eG*e[5mC]) [ISIS 447161]” was tested. Which “% inhibition of murine TTC39B mRNA” value did it give?
The value was 14%.

With “GGTGCCCGGACCAGCCCGCT (antisense eG*eG*eT*eG*e[5mC]*d[5mC]*d[5mC]*dG*dG*dA*d[5mC]*d[5mC]*dA*dG*d[5mC]*e[5mC]*e[5mC]*eG*e[5mC]*eT) [ISIS 447158]” as the sequence, how does the “% inhibition of murine TTC39B mRNA” value read?
The value was 39%.

Which “% inhibition of murine TTC39B mRNA” value does the source give for “GTTTCTTGAGCCTATAAGTC (eG*eT*eT*eT*e[5mC]*dT*dT*dG*dA*dG*d[5mC]*d[5mC]*dT*dA*dT*eA*eA*eG*eT*e[5mC]; antisense) [ISIS 447172]” here?
Its value is 54%.

With “TATGGAGAAGCAGATGGCCT (eT*eA*eT*eG*eG*dA*dG*dA*dA*dG*d[5mC]*dA*dG*dA*dT*eG*eG*e[5mC]*e[5mC]*eT; antisense) [ISIS 447175]” as the sequence, how does the “% inhibition of murine TTC39B mRNA” value read?
The value was 56%.

Which “% inhibition of murine TTC39B mRNA” value does the source give for “TCCAGATCATTATGTTTACA (eT*e[5mC]*e[5mC]*eA*eG*dA*dT*d[5mC]*dA*dT*dT*dA*dT*dG*dT*eT*eT*eA*e[5mC]*eA; antisense) [ISIS 447174]” here?
Its value is 50%.

For “TCCGGTGCGCACCCAGTACC (antisense eT*e[5mC]*e[5mC]*eG*eG*dT*dG*d[5mC]*dG*d[5mC]*dA*d[5mC]*d[5mC]*d[5mC]*dA*eG*eT*eA*e[5mC]*e[5mC]) [ISIS 447155]”, which “% inhibition of murine TTC39B mRNA” value is on record?
The value was 23%.

Which “% inhibition of murine TTC39B mRNA” value does the source give for “TGTCCGATGGAGATTGTTAA (antisense eT*eG*eT*e[5mC]*e[5mC]*dG*dA*dT*dG*dG*dA*dG*dA*dT*dT*eG*eT*eT*eA*eA) [ISIS 447164]” here?
Its value is 0%.

How did the “% inhibition of murine TTC39B mRNA” value turn out when “TTCCAGCTCGGCTGCGCCAC (antisense eT*eT*e[5mC]*e[5mC]*eA*dG*d[5mC]*dT*d[5mC]*dG*dG*d[5mC]*dT*dG*d[5mC]*eG*e[5mC]*e[5mC]*eA*e[5mC]) [ISIS 447157]” was run?
The value was 21%.
